The values below are quoted from earlier work in US20060083727A1, “Methods and compositions for the treatment of diseases characterized by calcification and/or plaque formation” (Nanobac Pharmaceuticals, Inc., priority 2004, published 2006).

The test system of the series is NB/CNP. To be noted: background statement.

`O=C(O)CN(CCN(CC(=O)O)CC(=O)O)CC(=O)O` [EDTA, Ethylenediaminetetraacetic acid]: the “Effect on protective biofilm secreted by NB/CNP” value is listed as “can assist in dissolving the protective biofilm”.

In the case of Penicillin, the “Killing / sensitivity of NB/CNP” value is “cannot be killed”.
